Calls of active or inactive are those of the source. No cut-off for these calls is given here.
Columns and labels:
[1] = system: Mus musculus; experiment: Effect on uterine weight in ovariectomized C57B16 mouse at 0.1 to 2.4 nM, sc; type: functional, organism-based; details: Uterus
[2] = biological target: T1, Estrogen receptor beta (Homo sapiens, UniProt Q92731); experiment: Binding affinity to ERbeta receptor in COS7 cells by competitive binding assay; type: cell-based, COS-7
[3] = system: Mus musculus; experiment: Effect on uterine weight in ovariectomized C57B16 mouse at 2.4 to 27 nM, sc; type: functional, organism-based; details: Uterus
[4] = biological target: T1, Estrogen receptor beta; experiment: Antagonist activity in ERbeta-transfected COS7 cells assessed as inhibition of E2-mediated PI(3)K activation; type: functional, cell-based; details: COS-7
[5] = system: Mus musculus; experiment: Inhibition of G1-induced GPR30-mediated epithelial uterine cell proliferation in sc dosed ovariectomized C57B16 mouse; type: functional, organism-based; details: Uterine epithelium
[6] = system: Mus musculus; experiment: Inhibition of estrogen-induced GPR30-mediated epithelial uterine cell proliferation in sc dosed ovariectomized C57B16 mouse; type: functional, Uterine epithelium
[7] = biological target: T2, Estrogen receptor (Homo sapiens) (UniProt P03372); experiment: Antagonist activity in ERalpha-transfected COS7 cells assessed as inhibition of E2-mediated PI(3)K activation; type: functional, cell-based; details: COS-7
T2 sequence (whole entry): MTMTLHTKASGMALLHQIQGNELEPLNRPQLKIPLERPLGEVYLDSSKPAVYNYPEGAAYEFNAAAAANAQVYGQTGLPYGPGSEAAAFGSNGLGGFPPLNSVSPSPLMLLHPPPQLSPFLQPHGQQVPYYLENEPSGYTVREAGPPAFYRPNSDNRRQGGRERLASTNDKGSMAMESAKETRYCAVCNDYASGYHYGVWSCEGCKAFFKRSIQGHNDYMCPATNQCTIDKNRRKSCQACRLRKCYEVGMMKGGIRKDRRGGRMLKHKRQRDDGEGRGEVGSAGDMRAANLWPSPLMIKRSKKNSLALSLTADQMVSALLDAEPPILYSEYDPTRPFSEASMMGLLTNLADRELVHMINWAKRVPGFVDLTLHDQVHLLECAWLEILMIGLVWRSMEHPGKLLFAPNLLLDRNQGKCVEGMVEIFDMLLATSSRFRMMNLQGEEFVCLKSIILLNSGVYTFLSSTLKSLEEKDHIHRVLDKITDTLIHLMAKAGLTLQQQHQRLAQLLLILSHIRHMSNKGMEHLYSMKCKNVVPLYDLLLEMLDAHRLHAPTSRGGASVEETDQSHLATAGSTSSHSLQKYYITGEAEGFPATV

[8] = system: Mus musculus; experiment: Inhibition of GPR30-mediated epithelial uterine cell proliferation in ovariectomized C57B16 mouse at 2.4 to 27 nM, sc relative to control; type: functional, organism-based; details: Uterine epithelium

T1 sequence (Q92731 whole entry): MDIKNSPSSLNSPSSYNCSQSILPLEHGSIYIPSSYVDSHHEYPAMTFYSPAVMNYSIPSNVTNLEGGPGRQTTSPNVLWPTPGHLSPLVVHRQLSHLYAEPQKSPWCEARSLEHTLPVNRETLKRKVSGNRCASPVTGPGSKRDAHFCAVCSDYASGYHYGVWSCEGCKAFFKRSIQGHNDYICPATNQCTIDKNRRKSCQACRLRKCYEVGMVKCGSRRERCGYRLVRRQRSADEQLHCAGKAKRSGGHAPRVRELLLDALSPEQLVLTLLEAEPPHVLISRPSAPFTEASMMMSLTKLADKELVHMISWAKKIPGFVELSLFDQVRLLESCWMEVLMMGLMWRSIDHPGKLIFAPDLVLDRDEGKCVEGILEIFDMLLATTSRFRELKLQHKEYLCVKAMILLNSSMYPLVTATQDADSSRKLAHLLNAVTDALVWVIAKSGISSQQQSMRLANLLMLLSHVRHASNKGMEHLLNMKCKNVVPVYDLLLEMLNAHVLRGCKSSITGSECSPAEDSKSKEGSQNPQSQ

SMILES	Activity [1]	Ki [2] [µM]	Activity [3]	Activity [4]	inhibition [5]	inhibition (INH) [6] [%]	Activity [7]	Activity [8]
CC(=O)c1ccc2c(c1)[C@@H]1C=CC[C@@H]1[C@H](c1cc3c(cc1Br)OCO3)N2	inactive	–	–	–	–	–	–	–
Brc1cc2c(cc1[C@@H]1Nc3ccccc3[C@@H]3C=CC[C@@H]31)OCO2	–	> 10	inactive	inactive	Active; Dose-dependent effect	50	inactive	inactive
